Test results reported in patent US7767409B2, “Method for detection of substance bound to nuclear receptor” (Fujikura Kasei Co., Ltd., priority 2005, dated 2010).

Experiments:
Assay type in all cases: biochemical
[1] = molecular target: T1, human liver X receptor α-GST fusion protein (LXR-α) (Homo sapiens, UniProt Q13133); assay: Agonist assay with nuclear receptor-GST fusion protein, LXR-α; conditions: FIG. 9
T1 construct: made in house
T1 sequence (Q13133 209-447 limits assumed): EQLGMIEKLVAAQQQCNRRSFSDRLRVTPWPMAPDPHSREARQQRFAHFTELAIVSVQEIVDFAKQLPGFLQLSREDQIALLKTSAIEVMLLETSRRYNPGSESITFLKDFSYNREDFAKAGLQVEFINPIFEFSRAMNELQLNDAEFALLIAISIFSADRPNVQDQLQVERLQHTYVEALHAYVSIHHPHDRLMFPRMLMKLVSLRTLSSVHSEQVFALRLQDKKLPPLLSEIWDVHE

[2] = molecular target: T2, human liver X receptor β-GST fusion protein (LXR-β) (Homo sapiens, UniProt P55055); assay: Agonist assay with nuclear receptor-GST fusion protein, LXR-β; conditions: FIG. 9
T2 construct: made in house
T2 sequence (P55055 222-460 limits assumed): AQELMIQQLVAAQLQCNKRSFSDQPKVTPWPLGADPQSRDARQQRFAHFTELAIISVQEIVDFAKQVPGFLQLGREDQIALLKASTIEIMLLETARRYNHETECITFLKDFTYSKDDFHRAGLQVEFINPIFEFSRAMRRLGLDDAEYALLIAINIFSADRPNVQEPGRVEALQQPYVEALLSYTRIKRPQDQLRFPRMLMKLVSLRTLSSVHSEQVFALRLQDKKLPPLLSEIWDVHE

[3] = molecular target: T3, human estrogen receptor β-GST fusion protein (ER-β) (Homo sapiens, UniProt Q92731); assay: Assay of ligand using coactivator SRC1-bound plate, ER-β; conditions: HRP-labeled anti-GST antibody, 450 nm, FIG. 6
T3 construct: made in house; host or cells: Escherichia coli BL21
T3 sequence (Q92731 264-498 limits assumed): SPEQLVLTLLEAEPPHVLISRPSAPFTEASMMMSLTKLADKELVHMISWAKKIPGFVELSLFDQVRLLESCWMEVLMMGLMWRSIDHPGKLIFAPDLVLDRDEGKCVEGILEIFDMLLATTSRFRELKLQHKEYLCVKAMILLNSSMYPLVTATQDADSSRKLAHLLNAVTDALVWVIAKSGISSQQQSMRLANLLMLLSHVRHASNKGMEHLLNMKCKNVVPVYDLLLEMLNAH

[4] = molecular target: T4, human estrogen receptor α-GST fusion protein (ER-α) (Homo sapiens, UniProt P03372); assay: Assay of ligand using coactivator SRC1-bound plate, ER-α (present detection method); conditions: HRP-labeled anti-GST antibody, 450 nm, FIG. 6
T4 construct: made in house; host or cells: Escherichia coli BL21
T4 sequence (P03372 311-547 limits assumed): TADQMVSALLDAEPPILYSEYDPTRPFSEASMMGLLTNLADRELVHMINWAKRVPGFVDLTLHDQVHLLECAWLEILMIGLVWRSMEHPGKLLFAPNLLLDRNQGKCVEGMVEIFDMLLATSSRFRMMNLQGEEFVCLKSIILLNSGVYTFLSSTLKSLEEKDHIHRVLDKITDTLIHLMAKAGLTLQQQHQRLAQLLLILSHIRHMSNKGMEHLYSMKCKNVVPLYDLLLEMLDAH
Method: In a manner similar to that of the aforementioned existing method, a purified ER-α product (10 mL) was prepared from an ER-α cell culture (1 L). By use of this product, the amount of an assay reagent prepared was examined as described hereinbelow. Avidin was immobilized on a plate in advance, and a biotinylated coactivator SRC1 (0.01 mg/mL, dissolved in DMSO) was prepared into a solution (final concentration: […]) by use of a washing buffer. The thus-prepared solution was dispensed into the plate (100 μL/well), followed by impregnation for one hour, to thereby prepare an SRC1-bound plate. […] After reaction with shaking for one hour, the plate was washed with a washing buffer, and an HRP-labeled anti-GST antibody solution prepared by diluting the antibody with a washing buffer by a factor of 1/40,000 was dispensed into the plate (100 μL/well), followed by reaction with shaking for one hour. After reaction, the plate was washed with a washing buffer; a color-developing reagent was added to the plate (100 μL/well); and the plate was allowed to stand still for 10 minutes for color development reaction. Color development reaction was stopped by use of 1 N sulfuric acid, followed by measurement at a wavelength of 450 nm by means of a plate reader.
An HRP-labeled anti-GST antibody was employed for assay.

Row | Compound | OD, agonist dose dependence [1] | OD, agonist dose dependence [2] | OD (binding of receptor to immobilized coactivator), agonist mode [3] | OD (binding of receptor to immobilized coactivator), agonist mode [4]
1 | O=S(=O)(c1ccccc1)N(CC(F)(F)F)c1ccc(C(O)(C(F)(F)F)C(F)(F)F)cc1 [TO-901317] | OD was increased in a manner dependent on the dose of the corresponding agonist | OD was increased in a manner dependent on the dose of the corresponding agonist | – | –
2 | CC/C(=C(/CC)c1ccc(O)cc1)c1ccc(O)cc1 [diethylstilbestrol] | – | – | increase in OD was observed | –
3 | CC(C)(c1ccc(O)cc1)c1ccc(O)cc1 [bisphenol A] | – | – | increase in OD was observed | increase in OD was observed
4 | nonylphenol | – | – | increase in OD was observed | increase in OD was observed
